Data as given in US9290503B2, “Tricyclic compound derivatives useful in the treatment of neoplastic diseases, inflammatory disorders and immunomodulatory disorders” (CHEMBRIDGE CORPORATION, priority 2006, dated 2016).

What was measured:
IGF1R tyrosine kinase = biological target: T1, IGF1R tyrosine kinase (Homo sapiens, UniProt P08069); test: IGF1R tyrosine kinase assay (Kinase-Glo ATP depletion or PT66/PT100 AlphaScreen); type: biochemical; settings: FIG. 12
T1 construct: purified recombinant, 6×His- or GST-tagged kinase domain fragments of the corresponding RTKs expressed in baculovirus system; host or cells: baculovirus system
Procedure: To determine inhibition of several tyrosine kinases, such as IGF1R, InsR, Alk, TrkA and Jak2, kinase assays are conducted using either Kinase-Glo (Promega) or AlphaScreen (PerkinElmer) kinase assay platforms. The Kinase-Glo Luminescent Kinase Assay is a homogeneous method for measuring kinase activity by determining the amount of ATP remaining after a kinase reaction. The luminescent signal is proportional to the amount of ATP and inversely proportional to the amount of kinase activity. Tyrosine kinase PT66 AlphaScreen Assay is a high-sensitivity homogeneous, anti-phosphotyrosine antibody-mediated luminescent proximity method measuring incorporation of phosphate in synthetic poly(Glu-Tyr) substrate. The kinase preparations used consist of purified recombinant, 6×His- or GST-tagged kinase domain fragments of the corresponding RTKs expressed in baculovirus system.
The IGF1R tyrosine kinase is assayed in Kinase-Glo ATP depletion assay using the synthetic polymer poly(Glu-Tyr, 4:1) (Sigma Chemicals) as a phosphoacceptor substrate. Each reaction mixture consists of a total volume of 10 μl and contains 40 ng of the enzyme, 5 μg of poly(Glu-Tyr), 10 μM of ATP and variable concentrations of test compounds. The mixtures also contain 50 mM Tris-HCl, pH 7.5; 5 mM MgCl2; 5 mM MnCl2; 2 mM DTT and 0.01% Tween 20. The reaction mixtures are incubated at 37° C. for 60 minutes and residual concentration of ATP in the mixture is determined by adding luciferase-containing Kinase-Glo (Promega) development reagent and counting luminescence levels using Fusion Universal Microplate Analyzer (PerkinElmer). Tested compounds are dissolved in dimethyl sulfoxide to a stock concentration of 10 mM and are typically evaluated in the assay at eight concentrations in 1 nM to 20 μM range, each in quadruplicate. […] IC50 values are derived by non-linear regression analysis using Prism 3.0 software (Graphpad Software). […]

human myeloma cell lines [1] = test: Effect on cell cycle, PI staining; type: cell-based; settings: sensitive cell lines; 24 hours; 0.6 μM and 1.8 μM
Procedure: (§1) FIG. 6 depicts the effect of compound (2a) (i.e., CRL 103142) and compound (2b) (i.e., CRL 130323) on cell cycle. 4 human myeloma cell lines (3 sensitive and 1 resistant) were incubated for 24 hrs with indicated concentrations of compound (2a) and compound (2b) and effect on cell cycle was assessed by PI staining. Results are reported as percentage of cells in G0-G1 or S phase.
4 human myeloma cell lines (3 sensitive and 1 resistant) were incubated for 24 hours with the compounds of the invention, including compounds (2a) and (2b), with a concentration of 0.6 μM and 1.8 μM and effect on cell cycle was assessed by PI staining. Results are reported as percentage of cells in G0-G1 or S phase.

human myeloma cell lines [2] = test: Effect on apoptosis, PI/annexin V staining; type: cell-based; settings: sensitive cell lines; 48 or 72 hours; 0.6 μM and 1.8 μM
Procedure: as §1, with “7” for “6”, “apoptosis.” for “cell cycle.”, “48 or 72” for “24”, “apoptosis” for “cell cycle”, “PI/annexin V” for “PI”, “viable (PI−/annexin V−) cells.” for “cells in G0-G1 or S phase.”
4 human myeloma cell lines (3 sensitive and 1 resistant) were incubated for 48 or 72 hours with the compounds of the invention, including compounds (2a) and (2b), having a concentration of 0.6 μM and 1.8 μM and effect on apoptosis was assessed by PI/annexin V staining. Results are reported as percentage of viable (PI−/annexin V−) cells.

[3] = test system: myeloma cells of primary patient sample; test: Induction of apoptosis in primary patient sample; type: cell-based, human; settings: for apoptosis of myeloma cells: primary patient sample
Source text: (§2) FIG. 8 depicts the apoptosis of myeloma cells induced by the compounds of the invention. Primary patient sample exposed to DMSO or compound (2a) (i.e., CRL 103142) or compound (2b) (i.e., CRL 130323) for 24 hr and indicated concentrations. LUQ-% viable myeloma cells and LLQ-% viable non-myeloma cells.
as §2, with “9” for “8”, “48” for “24”
as §2, with “10” for “8”, “96” for “24”
Primary patient sample exposed to DMSO or the compounds of the invention for 24 hours, 48 hours, and 96 hours and with a concentration of 0.4 μM, 0.6 μM, 1.2 μM, and 1.8 μM. LUQ-% viable myeloma cells and LLQ-% viable non-myeloma cells. The compounds of the invention included significant apoptosis of myeloma cells (FIGS. 8-10).

normal cell line CHO = test: Myeloma-selective cytotoxicity (FIG. 11), CHO; type: cell-based, chinese hamster
Source text: (§3) All the above were active in the multiple myeloma cell line H929.

normal cell line HEK293 = test: Myeloma-selective cytotoxicity (FIG. 11), HEK293; type: cell-based, human
Source text: as §3

[4] = test system: multiple myeloma cell line H929; test: Myeloma-selective cytotoxicity (FIG. 11), H929; type: cell-based, human
Source text: as §3

[5] = Toxicity in animals, body weight (FIG. 13); type: in vivo; settings: highest doses tested

T1 sequence (P08069 999-1274 limits assumed): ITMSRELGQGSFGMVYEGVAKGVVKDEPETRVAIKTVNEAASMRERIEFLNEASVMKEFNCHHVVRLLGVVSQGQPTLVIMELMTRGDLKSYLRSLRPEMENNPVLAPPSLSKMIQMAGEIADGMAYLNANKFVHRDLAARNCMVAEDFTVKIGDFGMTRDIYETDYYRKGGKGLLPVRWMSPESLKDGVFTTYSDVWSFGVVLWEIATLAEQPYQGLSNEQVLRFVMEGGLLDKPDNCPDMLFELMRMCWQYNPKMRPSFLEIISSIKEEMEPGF

| Compound | IGF-1R potency in vitro (IGF1R tyrosine kinase) | IGF-1R potency in vitro (IGF1R tyrosine kinase; listed as CRL130323) | effect on cell cycle (percentage of cells in G0-G1 or S phase) (human myeloma cell lines [1]) | effect on apoptosis (percentage of viable PI−/annexin V− cells) (human myeloma cell lines [2]) | selectivity, viable myeloma cells versus viable non-myeloma cells ([3]; primary patient sample, 24, 48 and 96 hours) | apoptosis of myeloma cells ([3]; 24 hr) | apoptosis of myeloma cells ([3]; 48 hr) | apoptosis of myeloma cells ([3]; 96 hr) | toxicity in normal cell line CHO (normal cell line CHO) | toxicity in normal cell line HEK293 (normal cell line HEK293) | activity in multiple myeloma cell line H929 [4] | selectivity towards multiple myeloma lines [4] | toxicity in animals (body weight) [5] | toxicity in animals (body weight) ([5]; listed as CRL130323) |
| --- | --- | --- | --- | --- | --- | --- | --- | --- | --- | --- | --- | --- | --- | --- |
| Cc1ccc(OC[C@H](O)CNc2cc[nH]c(=O)c2-c2nc3cc4c(cc3[nH]2)CN(C2CCN(CCS(C)(=O)=O)CC2)C4=O)c(C)c1 [2b] | same potency range as known preclinical compounds | comparable IGF-1R potency | induced significant G1 growth arrest | induced significant apoptosis | more selective | induced significant apoptosis of myeloma cells | induced significant apoptosis of myeloma cells | induced significant apoptosis of myeloma cells | did not demonstrate toxicity | did not demonstrate toxicity | active | highly selective | no signs of toxicity | no observable toxicity |
| Cc1ccc(OC[C@H](O)CNc2cc[nH]c(=O)c2-c2nc3cc4c(cc3[nH]2)CN(C2CCN(C)CC2)C4=O)c(C)c1 [2a] | same potency range as known preclinical compounds | – | induced significant G1 growth arrest | induced significant apoptosis | – | induced significant apoptosis of myeloma cells | induced significant apoptosis of myeloma cells | induced significant apoptosis of myeloma cells | demonstrated toxicity | demonstrated toxicity | active | – | – | – |
